41 sequences from PMC11714206, “Massively Parallel Screening of Toll/Interleukin‐1 Receptor (TIR)‐Derived Peptides Reveals Multiple Toll‐Like Receptors (TLRs)‐Targeting Immunomodulatory Peptides” (Advanced Science, 2024) can be followed below.

For the assay, the target named is T1, MAL^TIR (Homo sapiens, UniProt P58753).
T1 construct: MAL (residues 79–221); 6xHis; made in house; host or cells: E. coli BL21 (DE3)
As to the kind of experiment: T‐Surf phage library (P8 and P3) selection against MAL^TIR, four rounds, NGS read counts. The following applies: for P8_MAL Rank (after) / P8_MAL Rank (before): P8 library; for P3_MAL Rank (after) / P3_MAL Rank (before): P3 library; for Population: 4th round of selection against MAL TIR, share of NGS reads. Type of assay: binding. Summed up: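 Read counts come from NGS of phage pools after the fourth selection round, barcoded by 20-cycle PCR and filtered for quality ≥30. Each round: phage incubated 1 h at RT on immobilised TIR protein (5 µg mL^−1, BSA-blocked), washed, HCl-eluted and amplified in E. coli TG1.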

The mark [1] stands for this setting: selection against MAL, rank after grouping.
The mark [2] stands for this setting: selection against MAL, rank before grouping.
[3] abbreviates: selection against MAL, rank by count after grouping.
The mark [4] stands for this setting: selection against MAL, rank by count before grouping.
The mark [5] stands for this setting: selection against MAL TIR, rank by count after grouping.
The mark [6] stands for this setting: selection against MAL TIR, rank by count before grouping.
[7] abbreviates: P8_MAL: rank by count after grouping.
Where [8] appears, read: P8_MAL: rank by count before grouping.
Setting [9] is: 4R selection against MAL, rank after grouping.
Where [10] appears, read: 4R selection against MAL, rank before grouping.
Setting [11] is: P3_MAL: rank by count after grouping.
[12] abbreviates: P3_MAL: rank by count before grouping.

T1 sequence (P58753 79-221): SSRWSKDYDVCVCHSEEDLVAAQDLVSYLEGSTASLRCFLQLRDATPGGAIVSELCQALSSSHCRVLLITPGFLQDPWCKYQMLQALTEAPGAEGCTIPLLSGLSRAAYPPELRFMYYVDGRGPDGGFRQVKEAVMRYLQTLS

Take LFFWESLKKLLRSAGR: the “P8_MAL Rank (after)” value under setting [1] was 531. For the same sequence, the “P8_MAL Rank (before)” value under setting [2] amounted to 2114.
As to PNLLTKVLHYLMRTKT, under setting [3], the “P3_MAL Rank (after)” value amounted to 768. Also, the “P3_MAL Rank (before)” value under setting [4] was 2667.
Consider CFYEGQLFLALADKSI, for which the “P8_MAL Rank (after)” value under setting [5] was 284. Under setting [6], the “P8_MAL Rank (before)” value is recorded as 1106.
Turning to LFFWESLKQLLGNPTM, the “Rank (after)” value under setting [7] amounted to 177. The “Rank (before)” value under setting [8] came out at 909.
For AFLYTFLINLPHTNNF, the “P8_MAL Rank (after)” value under setting [9] is recorded as 628. The “P8_MAL Rank (before)” value under setting [10] is on record as 1838.
Consider KQWLNAPTAAANLSGW, for which the “P3_MAL Rank (after)” value under setting [9] is on record as 664. The “P3_MAL Rank (before)” value under setting [10] was 3635.
For the sequence KLFWAICIMRWCRRAF, under setting [7], the “Rank (after)” value amounted to 175. For the same sequence, the “Rank (before)” value under setting [8] was found to be 1070.
Take YAFKGNLHRYLVQRGV: the “Rank (after)” value under setting [11] is reported as 162. The “Rank (before)” value under setting [12] is reported as 1483.
Regarding YAFTSHLHRSLVQRGV, under setting [5], the “P3_MAL Rank (after)” value is on record as 257. Under setting [6], the “P3_MAL Rank (before)” value is given as 1473.
Regarding DTALTNSGFHIFRDNE, under setting [3], the “P3_MAL Rank (after)” value turned out to be 689. In addition, the “P3_MAL Rank (before)” value under setting [4] was 1984.
On to LQNQWKLALTNVASLV, for which the “Rank (after)” value under setting [11] was 459. Further, under setting [12], the “Rank (before)” value is 2149.
SFFWSKLSYHLPAPQH: under setting [1], the “P3_MAL Rank (after)” value turned out to be 559. Also, the “P3_MAL Rank (before)” value under setting [2] is recorded as 2991.
On to TFPGHLYNALVQAGIL, for which the “Rank (after)” value under setting [7] amounted to 180. For the same sequence, the “Rank (before)” value under setting [8] was 2633.
For LFFWESLKQLLRSDG the same measures were 178 and 2104.
TFLGHLYIAMVQAAIH: under setting [1], the “P8_MAL Rank (after)” value is 528. Moreover, under setting [2], the “P8_MAL Rank (before)” value is reported as 2559.
For the sequence LKWGDPYFLEQTALCD, the “P3_MAL Rank (after)” value under setting [3] was 771. Further, the “P3_MAL Rank (before)” value under setting [4] is recorded as 2208.
For AFFWEKLRTVLGRPTM, the “Rank (after)” value under setting [7] is listed as 477. For the same sequence, the “Rank (before)” value under setting [8] came to 1713.
As for YAFTGHLHRYLVQPGG, under setting [5], the “P3_MAL Rank (after)” value is recorded as 249. The “P3_MAL Rank (before)” value under setting [6] was 1409.
With RGYLRHVRHHLQAKDH, the “P3_MAL Rank (after)” value under setting [9] is 657. Moreover, under setting [10], the “P3_MAL Rank (before)” value is 2426.
Regarding KEVEGWRDALTKAPI, the “P3_MAL Rank (after)” value under setting [9] was 644. In addition, the “P3_MAL Rank (before)” value under setting [10] came out at 3576.
For RNNYIGHLYQALYRNG, the “P8_MAL Rank (after)” value under setting [9] is given as 596. The “P8_MAL Rank (before)” value under setting [10] is 2297.
Regarding AFFCAQLKSVLGNPTM, the Population (P8_MAL pool: P8 T-Surf phage library) is reported as 0.00309%.
Turning to YAFSGHLLHDLVLIRE, the “Rank (after)” value under setting [11] is 427. Besides, under setting [12], the “Rank (before)” value is reported as 1347.
As for YVFTGNLHRYLMQLGV, the “P3_MAL Rank (after)” value under setting [1] was 536. Further, the “P3_MAL Rank (before)” value under setting [2] was found to be 1341.
For NQWRNALTATANLSGL, the “P3_MAL Rank (after)” value under setting [9] is recorded as 604. For the same sequence, the “P3_MAL Rank (before)” value under setting [10] was found to be 3390.
Turning to TSHLHHAMRLNKIDTF, the “P3_MAL Rank (after)” value under setting [9] was 633. Moreover, under setting [10], the “P3_MAL Rank (before)” value is given as 3244.
Take SEFILQIILWMNPKIV: under setting [7], the “Rank (after)” value was 165. Besides, the “Rank (before)” value under setting [8] is 2449.
WFYERMVSMILRDTKV: the “P8_MAL Rank (after)” value under setting [5] worked out at 280. Moreover, the “P8_MAL Rank (before)” value under setting [6] came out at 1261.
YAFTSHLYDRLPAPQH: the “P3_MAL Rank (after)” value under setting [1] was found to be 554. The “P3_MAL Rank (before)” value under setting [2] was determined as 1469.
KTLAGLLYDHLFRLRL came in with a Population (P3_MAL pool: P3 T-Surf phage library) of 0.0233%. In addition, the “Rank (after)” value under setting [11] is 101. Also, the “Rank (before)” value under setting [12] came out at 102.
As to YAFTGHLHRYLVQRFA, the “P3_MAL Rank (after)” value under setting [1] is on record as 514. For the same sequence, the “P3_MAL Rank (before)” value under setting [2] is given as 1393.
Take HQARWNRPWAKLKPPT: the “P3_MAL Rank (after)” value under setting [9] was 626. Besides, under setting [10], the “P3_MAL Rank (before)” value is recorded as 2895.
As for ESILNQLRRSSESIAK, under setting [5], the “P3_MAL Rank (after)” value is listed as 211. Under setting [6], the “P3_MAL Rank (before)” value is recorded as 2053.
As to YFLHFLLFSRLDTVYI, the “Rank (after)” value under setting [7] came out at 464. Moreover, the “Rank (before)” value under setting [8] stood at 1504.
Take AFLYTFLNNLIHPTTF: under setting [7], the “Rank (after)” value is on record as 145. Besides, under setting [8], the “Rank (before)” value was found to be 1868.
For AFFWEQLRTVLGKPR, the “Rank (after)” value under setting [7] came to 130. In addition, the “Rank (before)” value under setting [8] amounted to 835.
For RNFAGLLYDRLTKWA, under setting [9], the “P3_MAL Rank (after)” value was found to be 630. Also, the “P3_MAL Rank (before)” value under setting [10] is given as 2594.
For NQWRNSLTAAANLRGW, the “Rank (after)” value under setting [11] was 173. Further, the “Rank (before)” value under setting [12] came out at 3340.
With PESGKLASGAGKSGQT, the “P3_MAL Rank (after)” value under setting [9] was 609. Further, under setting [10], the “P3_MAL Rank (before)” value turned out to be 2638.
Turning to TFLGHLYNTLVQPAIH, the “P8_MAL Rank (after)” value under setting [9] was 620. The “P8_MAL Rank (before)” value under setting [10] was determined as 2596.
Consider FAFTGQMLRYMVRSGL, for which, under setting [3], the “P3_MAL Rank (after)” value was 717. Moreover, the “P3_MAL Rank (before)” value under setting [4] amounted to 1132.
